The record followed here is publication PMC5603865, “Synthesis, In-Vitro Activity and Metabolic Properties of Quinocetone and Structurally Similar Compounds” (Iranian Journal of Pharmaceutical Research : IJPR, 2017).

In brackets after ≈: the same amount, converted by molar mass.

What is called IC50 is the concentration that inhibits the measured activity by half. A low value points to inhibition by little substance. For orientation: MIC means the lowest concentration found to suppress growth.

The test system of the first experiment is normal human Chang liver cells. The experiment can be described thus: In-vitro cytotoxicity, MTT cell proliferation assay. The class given is cell-based. The following applies: Homo sapiens, Chang liver, 24 h, 24 h incubation, concentration reducing viable cells by 50%. The protocol:
(§1) All test compounds were dissolved in dimethyl sulfoxide (DMSO, Sigma, USA) and then diluted in Dulbecco’s modified Eagle’s medium (DMEM, Gibco, USA) at desired concentrations for cell proliferation analyses or diluted in nutrient broth medium for antimicrobial susceptibility testing respectively. The final concentration of DMSO in the DMEM culture medium was under 0.1% (v:v).
(§2) HepG2 and normal human Chang liver cells were obtained from the Institute of Biochemistry and Cell Biology, Shanghai Institutes for Biological Sciences, Chinese Academy of Sciences (Shanghai, China). HepG2 and normal human Chang liver cells were cultured at 37˚Cwith 5% CO2 in DMEM supplemented with 2% L-glutamine, 10% fetal bovine serum (Gibco, USA), 100 U/mL penicillin and 100 […] (Gibco, USA).
(§3) The methodology for evaluating the cytotoxicity inhibitory activity of various test compounds towards cell proliferation has been described previously ([11], [17]). Cell proliferation inhibitory analyses were carried out using the 3-(4,5-dimethylthiazole-2-yl)-2,5-diphenyl tetrazolium bromide (MTT, Sigma, USA) assay. Briefly, cancers HepG2 and normal human Chang liver cells were harvested and resuspended in fresh growth medium. A 100 μL cell suspension (5 × 10^4 cells/mL) was aliquoted into each well of a 96-well culture plate. After 12 h incubation, the medium was replaced with fresh medium containing various concentrations of test compounds. The cells were then incubated for another 24 h. At the end of exposure, 10 μL of MTT solution (5 mg/mL) was added, and the cells were incubated for 4 h at 37 °C. The cells were treated with 100 μL DMSO, and absorbance was recorded at 570 nm using a microplate ELISA reader (ELX800, Bio-Tek, USA). All experiments were performed at least thrice, and data were presented as the mean of sixplicate wells ± standard deviation (SD). Cell inhibition was calculated as follows:
(§4) (OD of control group − OD of experimental group) / (OD of control group − OD of blank group) ×100%. The IC50 value for a compound was calculated using SPSS.
(In general: Tetrazolium assays rely on reduction of a dye to a coloured formazan, in cell work by metabolically active cells.)
As for `Cc1nc2ccccc2nc1C(=O)O` [Compound 10, 3-methyl-quinoxaline-2-carboxylic acid], the IC50 worked out at 2120 ± 90.1 µM.
Compound `Cc1c(C(=O)/C=C/c2cccc([N+](=O)[O-])c2)[n+]([O-])c2ccccc2[n+]1[O-]` [Compound 3d] registered an IC50 of 411 ± 17.1 µM.
`Cc1nc2ccccc2nc1C(=O)/C=C/c1ccc([N+](=O)[O-])cc1` [Compound 5e]: half-maximal inhibition (IC50) required 590.1 ± 2.22 µM.
Still for that read-out and setting: as for `Cc1nc2ccccc2nc1C(=O)/C=C/c1ccccc1O` [Compound 5c], the figure is 361 ± 10.2 µM; as for `COc1ccc(/C=C/C(=O)c2nc3ccccc3nc2C)cc1` [Compound 5f], 531 ± 19.3 µM.
In the case of `Cc1nc2ccccc2nc1C(=O)/C=C/c1ccc(N(C)C)cc1` [Compound 5h], inhibition was half-maximal at 567 ± 26.7 µM (IC50).
`Cc1nc2ccccc2nc1C(=O)/C=C/c1ccc(Cl)cc1` [Compound 5g] had an IC50 of 689 ± 46.2 µM.
Still for that read-out and setting: the same measure for `Cc1nc2ccccc2nc1C(=O)/C=C/c1cccc([N+](=O)[O-])c1` [Compound 5d]: 499 ± 8.75 µM.

A further experiment concerns HepG2 cells. The experiment is described as above. In kind it is cell-based, human. The following applies: Homo sapiens, HepG2, 24 h, 24 h incubation, concentration reducing viable cells by 50%. The protocol: as §1, §2, §3, §4
On to `Cc1nc2ccccc2nc1C(=O)O` [Compound 10, 3-methyl-quinoxaline-2-carboxylic acid], for which 2490 ± 133 µM corresponded to half-maximal inhibition (IC50).
`Cc1c(C(=O)/C=C/c2cccc([N+](=O)[O-])c2)[n+]([O-])c2ccccc2[n+]1[O-]` [Compound 3d] gave an IC50 of 380 ± 10.6 µM.
The same measure, in the same setting: as for `Cc1nc2ccccc2nc1C(=O)/C=C/c1ccc([N+](=O)[O-])cc1` [Compound 5e], the figure is 606 ± 34.6 µM; as for `Cc1nc2ccccc2nc1C(=O)/C=C/c1ccccc1O` [Compound 5c], 274 ± 11.6 µM.
Consider `COc1ccc(/C=C/C(=O)c2nc3ccccc3nc2C)cc1` [Compound 5f], for which the IC50 came out at 653 ± 32 µM.
Take `Cc1nc2ccccc2nc1C(=O)/C=C/c1ccc(N(C)C)cc1` [Compound 5h]: the half-maximal inhibitory concentration (IC50) turned out to be 626 ± 25.4 µM.
In the case of `Cc1nc2ccccc2nc1C(=O)/C=C/c1ccc(Cl)cc1` [Compound 5g], the IC50 was 533 ± 24.8 µM.
The compound `Cc1nc2ccccc2nc1C(=O)/C=C/c1cccc([N+](=O)[O-])c1` [Compound 5d] displayed an IC50 of 461 ± 4.49 µM.

The subject of a further experiment is Clostridium perfringen CVCC52,8604. The experiment can be described thus: In-vitro antibacterial activity, MIC by broth dilution (anaerobic chamber). The class given is cell-based. The following applies: Clostridium, 24 h. The protocol: as §1
(§5) The preliminary antibacterial activities were obtained for selected compounds against various bacteria, namely: Staphyloccocus aureus ATCC25923 (Gram-positive bacteria), Clostridium perfringen CVCC52,8604 (anaerobes bacteria), Salmonella pullorum (Gram-negative bacteria), Escherichia coli ATCC25922 (Gram negative bacteria) and Aeromonas hydrophila (Gram-negative bacteria) were used in the study. Each strain was cultured in appropriate broth medium. Clostridium perfringen was incubated in an anaerobic chamber. The minimum inhibitory concentration (MIC) for each test compound was estimated using the broth dilution method. The MIC’s was determined for each strain/compound pairs that presented antimicrobial activity. The method was modified from Mohapatra›s methods ([14], [15]). Cell suspensions were prepared in 2 mL of liquid medium with concentrations of various tests of compounds in 15 mL culture tubes by inoculation with 100 μL of 10^6 cfu/mL from each stock. The cultures were incubated at 28 °C or 37 °C for 24 h. Tubes showing no visible turbidity represented the MIC, and subsequently, were inoculated on the right side of the 9cm sterile nutrient agar plates without various test compounds and incubated for 24 h (Clostridium perfringen was incubated in an anaerobic chamber.). The least concentration, at which no growth was observed, represented the minimum bactericidal concentration (MBC) ([16]).
In general terms: Broth dilution looks for growth in wells or tubes with falling amounts of substance.
The compound `Cc1nc2ccccc2nc1C(=O)O` [Compound 10, 3-methyl-quinoxaline-2-carboxylic acid] had an MIC greater than 500 µg/mL.
Consider `Cc1c(C(=O)/C=C/c2cccc([N+](=O)[O-])c2)[n+]([O-])c2ccccc2[n+]1[O-]` [Compound 3d], for which the MIC is greater than 500 µg/mL.
The compound `Cc1nc2ccccc2nc1C(=O)/C=C/c1ccc([N+](=O)[O-])cc1` [Compound 5e] came in with an MIC greater than 500 µg/mL.
Same read-out and setting: the same measure for `Cc1nc2ccccc2nc1C(=O)/C=C/c1ccccc1O` [Compound 5c]: greater than 500 µg/mL; for `COc1ccc(/C=C/C(=O)c2nc3ccccc3nc2C)cc1` [Compound 5f]: greater than 500 µg/mL; for `Cc1nc2ccccc2nc1C(=O)/C=C/c1ccc(N(C)C)cc1` [Compound 5h]: greater than 500 µg/mL.
Same read-out and setting: as for `Cc1nc2ccccc2nc1C(=O)/C=C/c1ccc(Cl)cc1` [Compound 5g], the figure is greater than 500 µg/mL; as for `Cc1nc2ccccc2nc1C(=O)/C=C/c1cccc([N+](=O)[O-])c1` [Compound 5d], greater than 500 µg/mL.

In the next experiment the test system is Gram-positive and Gram-negative bacteria. The experiment can be described thus: Antibacterial activity class based on the MIC results. The class given is cell-based.
Conditions: not given
As for the experimental part:
as §5
In this study, activity of quinoxaline-1, 4-dioxides and their deoxygenations was tested against selected Gram-negative bacteria (Escherichia coli, Salmonella pullorum and Aeromonas hydrophila), Gram-positive bacteria (Staphyloccocus aureus and Clostridium perfringen). The in-vitro antibacterial activity was based on the MIC results: Strong antibacterial activity, if MIC is less than 50 μg/mL; Moderate, if MIC is in between 50 and 250 μg/mL; No activity, if MIC is more than 500 μg/mL.
As to `Cc1c(C(=O)/C=C/c2cccc([N+](=O)[O-])c2)[n+]([O-])c2ccccc2[n+]1[O-]` [Compound 3d], the “antibacterial activity against Gram-positive and Gram-negative bacteria” value is given as “little or no activity”.

For the next experiment, the system named is Salmonella pullorum. The experiment can be described thus: In-vitro antibacterial activity, MIC by broth dilution. In kind it is cell-based. Conditions: Salmonella enterica, PULLORUM, 24 h. The protocol:
as §1, §5
Turning to `Cc1nc2ccccc2nc1C(=O)O` [Compound 10, 3-methyl-quinoxaline-2-carboxylic acid], the MIC is greater than 500 µg/mL.
Same read-out and setting: the same measure for `Cc1c(C(=O)/C=C/c2cccc([N+](=O)[O-])c2)[n+]([O-])c2ccccc2[n+]1[O-]` [Compound 3d]: 56.2 µg/mL (≈ 160 µM); for `Cc1nc2ccccc2nc1C(=O)/C=C/c1ccc([N+](=O)[O-])cc1` [Compound 5e]: greater than 500 µg/mL.
The compound `Cc1nc2ccccc2nc1C(=O)/C=C/c1ccccc1O` [Compound 5c] registered an MIC greater than 500 µg/mL.
Compound `COc1ccc(/C=C/C(=O)c2nc3ccccc3nc2C)cc1` [Compound 5f] showed an MIC greater than 500 µg/mL.
Same read-out and setting: the same measure for `Cc1nc2ccccc2nc1C(=O)/C=C/c1ccc(N(C)C)cc1` [Compound 5h]: greater than 500 µg/mL; for `Cc1nc2ccccc2nc1C(=O)/C=C/c1ccc(Cl)cc1` [Compound 5g]: greater than 500 µg/mL; for `Cc1nc2ccccc2nc1C(=O)/C=C/c1cccc([N+](=O)[O-])c1` [Compound 5d]: greater than 500 µg/mL.

The next experiment relates to Staphyloccocus aureus ATCC25923. The experiment is described as above. Conditions: broth dilution, 24 h; read-out: MIC values Staphyloccocus aureus ATCC25923. The class given is cell-based. The protocol: as §1, §5
`Cc1nc2ccccc2nc1C(=O)O` [Compound 10, 3-methyl-quinoxaline-2-carboxylic acid]: the MIC was greater than 500 µg/mL.
For the compound `Cc1c(C(=O)/C=C/c2cccc([N+](=O)[O-])c2)[n+]([O-])c2ccccc2[n+]1[O-]` [Compound 3d], the MIC stood at 449 µg/mL (≈ 1280 µM).
`Cc1nc2ccccc2nc1C(=O)/C=C/c1ccc([N+](=O)[O-])cc1` [Compound 5e]: the MIC is greater than 500 µg/mL.
Regarding `Cc1nc2ccccc2nc1C(=O)/C=C/c1ccccc1O` [Compound 5c], the MIC is greater than 500 µg/mL.
On to `COc1ccc(/C=C/C(=O)c2nc3ccccc3nc2C)cc1` [Compound 5f], for which the MIC is greater than 500 µg/mL.
On the same count and under the same terms, the same measure for `Cc1nc2ccccc2nc1C(=O)/C=C/c1ccc(N(C)C)cc1` [Compound 5h]: greater than 500 µg/mL; for `Cc1nc2ccccc2nc1C(=O)/C=C/c1ccc(Cl)cc1` [Compound 5g]: greater than 500 µg/mL.
In the case of `Cc1nc2ccccc2nc1C(=O)/C=C/c1cccc([N+](=O)[O-])c1` [Compound 5d], the MIC is greater than 500 µg/mL.

The test system of a further experiment is Aeromonas hydrophila. Described as above. The class given is cell-based. The following applies: Aeromonas hydrophila; broth dilution, 24 h; read-out: MIC values Aeromonas hydrophila. The protocol: as §1, §5
For the compound `Cc1nc2ccccc2nc1C(=O)O` [Compound 10, 3-methyl-quinoxaline-2-carboxylic acid], the MIC amounted to 481 µg/mL (≈ 2560 µM).
Turning to `Cc1c(C(=O)/C=C/c2cccc([N+](=O)[O-])c2)[n+]([O-])c2ccccc2[n+]1[O-]` [Compound 3d], the MIC is 449 µg/mL (≈ 1280 µM).
Turning to `Cc1nc2ccccc2nc1C(=O)/C=C/c1ccc([N+](=O)[O-])cc1` [Compound 5e], the MIC is greater than 500 µg/mL.
On to `Cc1nc2ccccc2nc1C(=O)/C=C/c1ccccc1O` [Compound 5c], for which the MIC stood at 371 µg/mL (≈ 1280 µM).
With `COc1ccc(/C=C/C(=O)c2nc3ccccc3nc2C)cc1` [Compound 5f], the MIC is greater than 500 µg/mL.
As to `Cc1nc2ccccc2nc1C(=O)/C=C/c1ccc(N(C)C)cc1` [Compound 5h], the MIC was greater than 500 µg/mL.
As to `Cc1nc2ccccc2nc1C(=O)/C=C/c1ccc(Cl)cc1` [Compound 5g], the MIC was greater than 500 µg/mL.
Take `Cc1nc2ccccc2nc1C(=O)/C=C/c1cccc([N+](=O)[O-])c1` [Compound 5d]: the MIC is greater than 500 µg/mL.

The next experiment has as its system Escherichia coli ATCC25922. The description is as above. In kind it is cell-based. The following applies: Escherichia coli, ATCC25922; broth dilution, 24 h; read-out: MIC values Escherichia coli ATCC25922. As for the experimental part: as §1, §5
As for `Cc1nc2ccccc2nc1C(=O)O` [Compound 10, 3-methyl-quinoxaline-2-carboxylic acid], the MIC is greater than 500 µg/mL.
Regarding `Cc1c(C(=O)/C=C/c2cccc([N+](=O)[O-])c2)[n+]([O-])c2ccccc2[n+]1[O-]` [Compound 3d], the MIC was greater than 500 µg/mL.
Regarding `Cc1nc2ccccc2nc1C(=O)/C=C/c1ccc([N+](=O)[O-])cc1` [Compound 5e], the MIC was greater than 500 µg/mL.
As for `Cc1nc2ccccc2nc1C(=O)/C=C/c1ccccc1O` [Compound 5c], the MIC is greater than 500 µg/mL.
Turning to `COc1ccc(/C=C/C(=O)c2nc3ccccc3nc2C)cc1` [Compound 5f], the MIC was greater than 500 µg/mL.
With `Cc1nc2ccccc2nc1C(=O)/C=C/c1ccc(N(C)C)cc1` [Compound 5h], the MIC is greater than 500 µg/mL.
Turning to `Cc1nc2ccccc2nc1C(=O)/C=C/c1ccc(Cl)cc1` [Compound 5g], the MIC was greater than 500 µg/mL.
As for `Cc1nc2ccccc2nc1C(=O)/C=C/c1cccc([N+](=O)[O-])c1` [Compound 5d], the MIC is greater than 500 µg/mL.
